Columns and labels:
[1] = target: T1, Human secretory PLA2 (Homo sapiens, UniProt P14555); assay: Secretory PLA2 inhibitory activity (diheptanoyl thio PC substrate, absorbance at 405 nm); type: biochemical; settings: diheptanoyl thio PC 1 mM, Triton X100 0.3 mM, pH 7.3, CaCl2 10 mM, 30 minutes, read-out: s-PLA2 Inhibition IC50
T1 sequence (P14555 21-144): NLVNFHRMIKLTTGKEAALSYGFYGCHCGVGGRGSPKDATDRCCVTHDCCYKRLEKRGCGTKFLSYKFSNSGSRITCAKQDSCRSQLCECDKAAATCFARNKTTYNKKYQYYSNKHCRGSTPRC
Procedure: Secretory PLA2 activity was assayed according to the method described in Penynolds L. J., Hughes L. L., Dennis E. A. et al. Anal. Biochem. 201,190-197 (1992).
Diheptanoyl thiophosphatidylcholine which was prepared according to the procedure described in the literature was used as a substrate. Human secretory PLA2 was used as an enzyme. The diheptanoyl thio PC (1 mM) was reacted with the human secretory PLA2 in the presence of Triton X100 (0.3 mM) and 5,5'-dithiobis-(2-nitrobenzoic acid) (125 μM) in Tris buffer (25 mM, pH 7.3), CaCl2 (10 mM), KCI (100 mM), bovine serum albumin (1.0 mg/ml), and then the change in absorbance at 405 nm at the time of 30 minutes after the reaction was assayed.
Inhibitory activity (%) was estimated by the formula: [(the change in absorbance with the inhibitor and PLA2 ·the change in absorbance with the inhibitor and without PLA2)/(the change in absorbance without the inhibitor and with PLA2 ·the change in absorbance without the inhibitor and PLA2)]×100.
IC50 value (μM) was calculated from graph showing inhibitory values on the vertical axis and log of concentrations of the inhibitor on the horizontal axis.

[2] = target: T2, intracellular PLA2 (cytosolic PLA2, cPLA2) (Homo sapiens, UniProt P47712); assay: Intracellular PLA2 (cPLA2) inhibitory activity (14C-arachidonyl phosphatidylcholine substrate); type: biochemical; settings: 2 μM radiolabelled phosphatidylcholine, 1 μM dioleoylglycerol, 1 mM CaCl2, pH 7.4; read-out: c-PLA2 Inhibition IC50
T2 sequence (P47712 1-749): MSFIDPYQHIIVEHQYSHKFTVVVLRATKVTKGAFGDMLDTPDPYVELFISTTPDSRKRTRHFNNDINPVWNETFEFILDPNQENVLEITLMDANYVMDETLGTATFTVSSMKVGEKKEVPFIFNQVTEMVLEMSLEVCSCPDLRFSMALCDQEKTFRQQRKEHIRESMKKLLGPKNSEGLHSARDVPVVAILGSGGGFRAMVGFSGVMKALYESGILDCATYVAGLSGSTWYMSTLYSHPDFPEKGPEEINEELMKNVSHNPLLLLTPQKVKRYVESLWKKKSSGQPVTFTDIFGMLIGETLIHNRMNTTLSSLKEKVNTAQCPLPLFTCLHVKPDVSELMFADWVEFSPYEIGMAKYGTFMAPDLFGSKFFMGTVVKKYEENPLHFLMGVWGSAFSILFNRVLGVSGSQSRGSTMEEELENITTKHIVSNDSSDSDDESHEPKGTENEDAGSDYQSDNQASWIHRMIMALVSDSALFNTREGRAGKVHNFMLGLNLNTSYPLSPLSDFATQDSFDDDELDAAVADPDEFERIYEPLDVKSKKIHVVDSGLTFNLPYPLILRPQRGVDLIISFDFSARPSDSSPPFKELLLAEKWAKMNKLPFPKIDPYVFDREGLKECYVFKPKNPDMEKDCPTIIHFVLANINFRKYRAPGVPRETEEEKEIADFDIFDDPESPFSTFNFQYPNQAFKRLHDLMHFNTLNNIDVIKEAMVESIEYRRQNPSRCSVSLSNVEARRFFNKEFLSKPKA
Procedure: cPLA2 activity was assayed according to the method described in R. M. Kramer, E. F. Roberts, J. Manetta and J. E. Putnam, J. Biol. Chem., 268 (8), 5268-5272 (1991). Briefly, intracellular PLA2 activity was assayed using supersonic treated […] which contain 1-palmitoyl-2-[^14 C]arachidonyl-sn-glycero-3-phosphocholine and sn-1, 2-dioleoylglycerol at a molar ratio of 2:1. This test mixture contained 1 mM CaCl2, 2 mM dithiothreitol, 150 mM NaCl, 50 mM Hepes, pH 7.4 and 0.1 mg/ml BSA. A substrate is a 2 μM radioisotope labelled phosphatidylcholine ribosome containing 1 μM dioleoylglycerol. IC50 value is calculating in the same manner as in calculating it for secretory PLA2 inhibitory activity.

COc1ccccc1OCCCOc1c(C)c(C)c(C(=O)Oc2c(C)c(C)c(C(=O)O)c(OC)c2C)c(OC)c1C [Example 39, 4-{4-[3-(2-Methoxyphenoxy)propoxy]-2-methoxy-3,5,6-trimethylbenzoyloxy}-2-methoxy-3,5,6-trimethylbenzoic Acid] was tested, and the IC50 [1] was 8.9 µM and the IC50 [2] was 12 µM.
For COc1cccc(OC)c1OCCCOc1c(C)c(C)c(C(=O)Oc2c(C)c(C)c(C(=O)O)c(OC)c2C)c(OC)c1C [Example 40, 4-{4-[3-(2,6-Dimethoxyphenoxy)propoxy]-2-methoxy-3,5,6-trimethylbenzoyloxy}-2-methoxy-3,5,6-trimethylbenzoic Acid], the IC50 [1] was 6.1 µM and the IC50 [2] was 13 µM.
Compound COc1cc(OC)cc(OCCCOc2c(C)c(C)c(C(=O)Oc3c(C)c(C)c(C(=O)O)c(OC)c3C)c(OC)c2C)c1 [Example 41, 4-{4-[3-(3,5-Dimethoxyphenoxy)propoxy]-2-methoxy-3,5,6-trimethylbenzoyloxy}-2-methoxy-3,5,6-trimethylbenzoic Acid] has an IC50 [1] of 7 µM and an IC50 [2] of 5.9 µM.
COc1c(C)c(OC(=O)c2c(C)c(C)c(OCCCOc3ccc(C(N)=O)cc3)c(C)c2OC)c(C)c(C)c1C(=O)O [Example 42, 4-{4-[3-(4-Carbamoylphenoxy)propoxy]-2-methoxy-3,5,6-trimethylbenzoyloxy}-2-methoxy-3,5,6-trimethylbenzoic Acid] was tested, and the IC50 [1] was 5 µM and the IC50 [2] was 31 µM.
Work on COC(=O)c1ccc(OCCCOc2c(C)c(C)c(C(=O)Oc3c(C)c(C)c(C(=O)O)c(OC)c3C)c(OC)c2C)cc1 [Example 43, 4-{4-[3-(4-Methoxycarbonylphenoxy)propoxy]-2-methoxy-3,5,6-trimethylbenzoyloxy}-2-methoxy-3,5,6 trimethylbenzoic Acid] yielded an IC50 [1] of 5.1 µM and an IC50 [2] of 14 µM.
Compound COc1c(C)c(OC(=O)c2c(C)c(C)c(OCCCOc3ccc(F)cc3)c(C)c2OC)c(C)c(C)c1C(N)=O [Example 44, 4-{4-[3-(4-Fluorophenoxy)propoxy]-2-methoxy-3,5,6-trimethylbenzoyloxy}-2-methoxy-3,5,6-trimethylbenzamide] has an IC50 [1] of 0.94 µM and an IC50 [2] of 9.3 µM.
In the case of COc1c(C)c(OC(=O)c2c(C)c(C)c(OCCCOc3ccc(C(N)=O)cc3)c(C)c2OC)c(C)c(C)c1C(N)=O [Example 45, 4-{4-[3-(4-Carbamoylphenoxy)propoxy]-2-methoxy-3,5,6-trimethylbenzoyloxy}-2-methoxy-3,5,6-trimethylbenzamide], the IC50 [1] is reported as 0.29 µM and the IC50 [2] is reported as greater than 50 µM.
With COC(=O)c1ccc(OCCCOc2c(C)c(C)c(C(=O)Oc3c(C)c(C)c(C(N)=O)c(OC)c3C)c(OC)c2C)cc1 [Example 46, 4-{4-[3-(4-Methoxycarbonylphenoxy)propoxy]-2methoxy-3,5,6-trimethylbenzoyloxy}-2-methoxy-3,5,6 trimethylbenzamide] the IC50 [1] was 0.74 µM and the IC50 [2] was greater than 50 µM.
For COc1c(C)c(OC(=O)c2c(C)c(C)c(OCCCOc3ccc(C(=O)O)cc3)c(C)c2OC)c(C)c(C)c1C(N)=O [Example 47, 4-{4-[3-(4-Carboxyphenoxy)propoxy]-2-methoxy-3,5,6-trimethylbenzoyloxy}-2-methoxy-3,5,6-trimethylbenzamide], the IC50 [1] was 0.22 µM and the IC50 [2] was 22 µM.
COc1c(C)c(OC(=O)c2c(C)c(C)c(OCCC=C(c3ccccc3)c3ccccc3)c(C)c2OC)c(C)c(C)c1C(=O)O [Example 48, 4-[4-(4,4-Diphenylbut-3-enyloxy)-2-methoxy-3,5,6-trimethylbenzoyloxy]-2-methoxy-3,5,6-trimethylbenzoic Acid] showed an IC50 [1] of 12 µM and an IC50 [2] of 3 µM.
In the case of COc1c(C)c(OC(=O)c2c(C)c(C)c(OCCC(C)CCCC(C)C)c(C)c2OC)c(C)c(C)c1C(=O)O (stereo not drawn) [Example 50, 4-[4-(3,7-Dimethyloctyloxy)-2-methoxy-3,5,6-trimethylbenzoyloxy]-2-methoxy-3,5,6-trimethylbenzoic Acid], the IC50 [1] is reported as 50 µM and the IC50 [2] is reported as 3 µM.
COc1c(C)c(OC(=O)c2c(C)c(C)c(OCCCN(S(=O)(=O)c3ccccc3)S(=O)(=O)c3ccccc3)c(C)c2OC)c(C)c(C)c1C(=O)O [Example 51, 4-{4-[(3-Bisphenylsulfonylamino)propoxy]-2-methoxy-3,5,6-trimethylbenzoyloxy}-2-methoxy-3,5,6-trimethylbenzoic Acid] gave an IC50 [1] of 2.1 µM and an IC50 [2] of 4.2 µM.
In the case of COc1c(C)c(OC(=O)c2c(C)c(C)c(OCCCN(S(C)(=O)=O)S(=O)(=O)c3ccccc3)c(C)c2OC)c(C)c(C)c1C(=O)O [Example 52], the IC50 [1] is reported as 4.5 µM and the IC50 [2] is reported as 21 µM.
Compound COc1c(C)c(OC(=O)c2c(C)c(C)c(OCCCN(C)S(=O)(=O)c3ccccc3)c(C)c2OC)c(C)c(C)c1C(=O)O [Example 53] has an IC50 [1] of 6 µM and an IC50 [2] of 20 µM.
For COc1c(C)c(OC(=O)c2c(C)c(C)c(OCCCNS(=O)(=O)c3ccccc3)c(C)c2OC)c(C)c(C)c1C(=O)O [Example 54, 4-{4-[(3-Phenylsulfonylamino)propoxy]-2-methoxy-3,5,6-trimethylbenzoyloxy}-2-methoxy-3,5,6-trimethylbenzoic Acid], the IC50 [1] was 17 µM and the IC50 [2] was greater than 50 µM.
COc1c(C)c(OC(=O)c2c(C)c(C)c(OCCCN(S(=O)(=O)c3ccc(F)cc3)S(=O)(=O)c3ccc(F)cc3)c(C)c2OC)c(C)c(C)c1C(=O)O [Example 55, 4-{4-[3-bis(4-Fluorophenyl)sulfonylaminopropoxy]-2-methoxy-3,5,6-trimethylbenzoyloxy}-2-methoxy-3,5,6-trimethylbenzoic Acid] showed an IC50 [1] of 6.8 µM and an IC50 [2] of 6.3 µM.
For COc1c(C)c(OC(=O)c2c(C)c(C)c(OCCCNS(=O)(=O)c3ccc(F)cc3)c(C)c2OC)c(C)c(C)c1C(=O)O [Example 56, 4-{4-[3-(4-Fluorophenyl)sulfonylaminopropoxy]-2-methoxy-3,5,6-trimethylbenzoyloxy}-2-methoxy-3,5,6 trimethylbenzoic Acid], the IC50 [1] was 14 µM and the IC50 [2] was greater than 50 µM.
COc1c(C)c(OC(=O)c2c(C)c(C)c(OCCCN(S(C)(=O)=O)S(=O)(=O)c3ccc(F)cc3)c(C)c2OC)c(C)c(C)c1C(=O)O [Example 57, 4-{4-[3-Methylsulfonyl-(4-fluorophenyl)sulfonylaminopropoxy]-2-methoxy-3,5,6-trimethylbenzoyloxy}-2-methoxy-3,5,6-trimethylbenzoic Acid] gave an IC50 [1] of 5.7 µM and an IC50 [2] of 16 µM.
In the case of COc1c(C)c(OC(=O)c2c(C)c(C)c(OCCCN(C)S(=O)(=O)c3ccc(F)cc3)c(C)c2OC)c(C)c(C)c1C(=O)O [Example 58, 4-{4-[3-Methyl-(4-fluorophenyl)sulfonylaminopropoxy]-2-methoxy-3,5,6-trimethylbenzoyloxy}-2-methoxy-3,5,6-trimethylbenzoic Acid], the IC50 [1] is reported as 5.3 µM and the IC50 [2] is reported as 26 µM.
In the case of COc1c(C)c(OC(=O)c2c(C)c(C)c(OCCCN(C(=O)OC(C)(C)C)S(C)(=O)=O)c(C)c2OC)c(C)c(C)c1C(=O)O [Example 59, 4-[4-(3-t-Butoxycarbonylmethylsulfonylaminopropoxy)-2-methoxy-3,5,6-trimethylbenzoyloxy]-2-methoxy-3,5,6-trimethylbenzoic Acid], the IC50 [1] is reported as 11 µM and the IC50 [2] is reported as greater than 50 µM.
COc1c(C)c(OC(=O)c2c(C)c(C)c(OCCCN(S(C)(=O)=O)S(C)(=O)=O)c(C)c2OC)c(C)c(C)c1C(=O)O [Example 60, 4-[4-(3-bis-Methylsulfonylaminopropoxy)-2-methoxy-3,5,6-trimethylbenzoyloxy]-2-methoxy-3,5,6-trimethylbenzoic Acid] was tested, and the IC50 [1] was 28 µM and the IC50 [2] was greater than 50 µM.
